Where a SMILES comes first, the peptide text is derived from it. [ ]: non-standard residue; d: D form.
Assays:
MDRAB 12035 = test: MIC of antimicrobial peptide during combined treatment with antibiotic; assay type: cell-based, Acinetobacter baumannii
In short: (§1)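 Broth microdilution in MH medium; strains were diluted to 2×10^6 CFU per ml before plating. Peptide was serially diluted stepwise at 2:1 starting from its MIC, and MH-diluted antibiotic was then added to determine MIC. The reversed arrangement was also tested.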

A. baumannii = test: as above; assay type: cell-based, Acinetobacter baumannii
In short: as §1

MDREC 1229 = test: MIC of antibiotic during combined treatment with antimicrobial peptide; assay type: cell-based, Escherichia coli
In short: as §1

E. coli = test: as above; assay type: cell-based, Escherichia coli; settings: for Antibiotic MIC, Erythromycin / Antibiotic MIC, Linezolid: E. coli
In short: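 First, antibiotic solution is diluted with MH medium; next, the dilution is dispensed into wells containing peptide; finally, the orientation is swapped and MIC of each mixture determined.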

[1] = erythromycin 4 μg/ml (Conc./MIC 1/8)
[2] = erythromycin 8 μg/ml (Conc./MIC 1/4)
[3] = erythromycin 16 μg/ml (Conc./MIC 1/2)
[4] = erythromycin 32 μg/ml (Conc./MIC 1)
[5] = vancomycin 512 μg/ml (Conc./MIC 1/2)
[6] = vancomycin 1024 μg/ml (Conc./MIC 1)
[7] = peptide treatment concentration 1 μg/ml
[8] = peptide treatment concentration 2 μg/ml
[9] = peptide treatment concentration 4 μg/ml
[10] = peptide treatment concentration 6 μg/ml
[11] = peptide treatment concentration 8 μg/ml
[12] = peptide treatment concentration 16 μg/ml
[13] = peptide treatment concentration 32 μg/ml
[14] = peptide treatment concentration 64 μg/ml

CC[C@H](C)[C@H](NC(=O)[C@H](CCCCN)NC(=O)[C@H](Cc1c[nH]c2ccccc12)NC(=O)[C@@H](N)CCCNC(=N)N)C(=O)N[C@@H](Cc1ccccc1)C(=O)N[C@@H](CCCCN)C(=O)N[C@@H](CCCCN)C(=O)N[C@H](C(=O)N[C@H](CC(C)C)C(=O)N[C@@H](CCCCN)C(=O)N[C@@H](CC(C)C)C(=O)N[C@@H](CC(C)C)C(=O)N[C@@H](Cc1c[nH]cn1)C(=O)N[C@@H](CCC(=O)O)C(=O)N[C@@H](Cc1ccccc1)C(=O)N[C@@H](CCCCN)C(=O)N[C@@H](CCCCN)C(=O)N[C@@H](Cc1ccccc1)C(N)=O)[C@@H](C)CC [PapMA-23, RWK IFK KIl KLL HEF KKF-NH2] (H-RWKIFKKI[dL]KLLHEFKKF-NH2; N-terminus assumed) was tested, and the “Peptide MIC during treatment with erythromycin” value (MDRAB 12035; [1]) was 8 µg/mL, the “Peptide MIC during treatment with erythromycin” value (MDRAB 12035; [2]) was 8 µg/mL and the “Peptide MIC during treatment with erythromycin” value (MDRAB 12035; [3]) was 4 µg/mL. For the same compound, the “Peptide MIC during treatment with erythromycin” value (MDRAB 12035; [4]) was 0 µg/mL, the “Peptide MIC during treatment with linezolid” value (MDRAB 12035; linezolid 64 μg/ml (Conc./MIC 1/8)) was 4 µg/mL and the “Peptide MIC during treatment with linezolid” value (MDRAB 12035; linezolid 512 μg/ml (Conc./MIC 1)) was 0 µg/mL. The “Peptide MIC during treatment with linezolid” value (MDRAB 12035; linezolid […] (Conc./MIC 1/2)) was 1 µg/mL, the “Peptide MIC during treatment with linezolid” value (MDRAB 12035; linezolid […] (Conc./MIC 1/4)) was 4 µg/mL and the “Peptide MIC during treatment with vancomycin” value (MDRAB 12035; [5]) was 2 µg/mL. For the same compound, the “Peptide MIC during treatment with vancomycin” value (MDRAB 12035; [6]) was 1 µg/mL, the “Peptide MIC during treatment with vancomycin” value (MDRAB 12035; vancomycin […] (Conc./MIC 1/4)) was 4 µg/mL and the “Peptide MIC during treatment with vancomycin” value (MDRAB 12035; vancomycin […] (Conc./MIC 1/8)) was 4 µg/mL. The “Peptide MIC during treatment with erythromycin” value (A. baumannii; [1]) was 8 µg/mL, the “Peptide MIC during treatment with erythromycin” value (A. baumannii; [2]) was 4 µg/mL and the “Peptide MIC during treatment with erythromycin” value (A. baumannii; [3]) was 4 µg/mL. The “Peptide MIC during treatment with erythromycin” value (A. baumannii; [4]) was 0 µg/mL, the “Peptide MIC during treatment with linezolid” value (A. baumannii; linezolid 32 μg/ml (Conc./MIC 1/8)) was 8 µg/mL and the “Peptide MIC during treatment with linezolid” value (A. baumannii; linezolid 64 μg/ml (Conc./MIC 1/4)) was 4 µg/mL. For the same compound, the “Peptide MIC during treatment with linezolid” value (A. baumannii; linezolid […] (Conc./MIC 1)) was 0 µg/mL, the “Peptide MIC during treatment with linezolid” value (A. baumannii; linezolid […] (Conc./MIC 1/2)) was 1 µg/mL and the “Peptide MIC during treatment with vancomycin” value (A. baumannii; [5]) was 0.25 µg/mL. The “Peptide MIC during treatment with vancomycin” value (A. baumannii; [6]) was 0 µg/mL, the “Peptide MIC during treatment with vancomycin” value (A. baumannii; vancomycin […] (Conc./MIC 1/4)) was 0.5 µg/mL and the “Peptide MIC during treatment with vancomycin” value (A. baumannii; vancomycin […] (Conc./MIC 1/8)) was 4 µg/mL. For the same compound, the “Antibiotic MIC, Erythromycin” value (MDREC 1229; [7]) was 128 µg/mL, the “Antibiotic MIC, Linezolid” value (MDREC 1229; [7]) was over 128 µg/mL and the “Antibiotic MIC, Vancomycin” value (MDREC 1229; [7]) was over 128 µg/mL. For the same compound, the “Antibiotic MIC, Erythromycin” value (MDREC 1229; [8]) was 64 µg/mL, the “Antibiotic MIC, Linezolid” value (MDREC 1229; [8]) was 128 µg/mL and the “Antibiotic MIC, Vancomycin” value (MDREC 1229; [8]) was over 128 µg/mL. The “Antibiotic MIC, Erythromycin” value (MDREC 1229; [9]) was 32 µg/mL, the “Antibiotic MIC, Linezolid” value (MDREC 1229; [9]) was 64 µg/mL and the “Antibiotic MIC, Vancomycin” value (MDREC 1229; [9]) was over 128 µg/mL. For the same compound, the “Antibiotic MIC, Erythromycin” value (MDREC 1229; [10]) was 8 µg/mL, the “Antibiotic MIC, Linezolid” value (MDREC 1229; [10]) was 32 µg/mL and the “Antibiotic MIC, Vancomycin” value (MDREC 1229; [10]) was 128 µg/mL. The “Antibiotic MIC, Erythromycin” value (MDREC 1229; [11]) was 4 µg/mL, the “Antibiotic MIC, Linezolid” value (MDREC 1229; [11]) was 32 µg/mL and the “Antibiotic MIC, Vancomycin” value (MDREC 1229; [11]) was 32 µg/mL. The “Antibiotic MIC, Erythromycin” value (MDREC 1229; [12]) was 1 µg/mL, the “Antibiotic MIC, Linezolid” value (MDREC 1229; [12]) was 16 µg/mL and the “Antibiotic MIC, Vancomycin” value (MDREC 1229; [12]) was 16 µg/mL. For the same compound, the “Antibiotic MIC, Erythromycin” value (MDREC 1229; [13]) was 0 µg/mL, the “Antibiotic MIC, Linezolid” value (MDREC 1229; [13]) was 0 µg/mL and the “Antibiotic MIC, Vancomycin” value (MDREC 1229; [13]) was 0 µg/mL. The “Antibiotic MIC, Erythromycin” value (MDREC 1229; [14]) was 0 µg/mL, the “Antibiotic MIC, Linezolid” value (MDREC 1229; [14]) was 0 µg/mL and the “Antibiotic MIC, Vancomycin” value (MDREC 1229; [14]) was 0 µg/mL. The “Synergistic effect of antibacterial activity with existing antibiotics compared with PapMA-1” value (E. coli; E. coli and MDREC1229) was “level similar to that of the PapMA-1 peptide”, the “Antibiotic MIC, Erythromycin” value (E. coli; erythromycin combined with peptide at 1 μg/ml) was 128 µg/mL and the “Antibiotic MIC, Erythromycin” value (E. coli; erythromycin combined with peptide at 2 μg/ml) was 64 µg/mL. The “Antibiotic MIC, Erythromycin” value (E. coli; erythromycin combined with peptide at 4 μg/ml) was 16 µg/mL, the “Antibiotic MIC, Erythromycin” value (E. coli; erythromycin combined with peptide at 6 μg/ml) was 4 µg/mL and the “Antibiotic MIC, Erythromycin” value (E. coli; erythromycin combined with peptide at 8 μg/ml) was 2 µg/mL. For the same compound, the “Antibiotic MIC, Erythromycin” value (E. coli; erythromycin combined with peptide at 16 μg/ml) was 0.5 µg/mL, the “Antibiotic MIC, Erythromycin” value (E. coli; erythromycin combined with peptide at 32 μg/ml) was 0 µg/mL and the “Antibiotic MIC, Erythromycin” value (E. coli; erythromycin combined with peptide at 64 μg/ml) was 0 µg/mL. The “Antibiotic MIC, Linezolid” value (E. coli; linezolid combined with peptide at 1 μg/ml) was over 128 µg/mL, the “Antibiotic MIC, Linezolid” value (E. coli; linezolid combined with peptide at 2 μg/ml) was 128 µg/mL and the “Antibiotic MIC, Linezolid” value (E. coli; linezolid combined with peptide at 4 μg/ml) was 64 µg/mL.

Source: patent US11214594B2, “Antimicrobial peptide having synergistic antibacterial effect with antibiotics on multidrug resistant bacteria, and use thereof” (priority 2016, dated 2022)
